Experimental data from ChEMBL document CHEMBL3039007, “Structure-based identification of OATP1B1/3 inhibitors” (Mol Pharmacol, 2013).

What was measured:
[1] = target: T1, Solute carrier organic anion transporter family member 1B1 (Homo sapiens, UniProt Q9Y6L6); conditions: chinese hamster, cho, 10 µM
T1 sequence (Q9Y6L6 whole entry): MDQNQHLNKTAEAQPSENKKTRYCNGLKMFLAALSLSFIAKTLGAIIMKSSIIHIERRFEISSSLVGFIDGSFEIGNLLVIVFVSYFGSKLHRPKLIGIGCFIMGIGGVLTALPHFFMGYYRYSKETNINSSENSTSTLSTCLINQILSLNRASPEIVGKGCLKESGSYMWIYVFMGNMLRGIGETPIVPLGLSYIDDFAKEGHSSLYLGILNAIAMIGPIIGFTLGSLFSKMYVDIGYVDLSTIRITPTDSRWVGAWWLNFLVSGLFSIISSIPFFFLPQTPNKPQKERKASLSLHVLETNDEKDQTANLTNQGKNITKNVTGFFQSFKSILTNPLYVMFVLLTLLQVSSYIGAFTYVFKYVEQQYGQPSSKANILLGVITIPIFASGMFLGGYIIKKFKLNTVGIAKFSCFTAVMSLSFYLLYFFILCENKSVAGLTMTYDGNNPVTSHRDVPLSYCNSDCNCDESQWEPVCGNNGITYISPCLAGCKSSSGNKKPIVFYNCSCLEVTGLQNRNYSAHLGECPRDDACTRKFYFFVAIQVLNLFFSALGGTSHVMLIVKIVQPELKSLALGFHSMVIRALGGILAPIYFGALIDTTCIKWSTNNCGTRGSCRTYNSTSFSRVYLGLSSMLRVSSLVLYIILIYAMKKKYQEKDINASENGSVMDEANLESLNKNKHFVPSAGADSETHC

[2] = target: T2, Solute carrier organic anion transporter family member 1B3 (Homo sapiens, UniProt Q9NPD5); conditions: chinese hamster, cho, 10 µM
T2 sequence (Q9NPD5 whole entry): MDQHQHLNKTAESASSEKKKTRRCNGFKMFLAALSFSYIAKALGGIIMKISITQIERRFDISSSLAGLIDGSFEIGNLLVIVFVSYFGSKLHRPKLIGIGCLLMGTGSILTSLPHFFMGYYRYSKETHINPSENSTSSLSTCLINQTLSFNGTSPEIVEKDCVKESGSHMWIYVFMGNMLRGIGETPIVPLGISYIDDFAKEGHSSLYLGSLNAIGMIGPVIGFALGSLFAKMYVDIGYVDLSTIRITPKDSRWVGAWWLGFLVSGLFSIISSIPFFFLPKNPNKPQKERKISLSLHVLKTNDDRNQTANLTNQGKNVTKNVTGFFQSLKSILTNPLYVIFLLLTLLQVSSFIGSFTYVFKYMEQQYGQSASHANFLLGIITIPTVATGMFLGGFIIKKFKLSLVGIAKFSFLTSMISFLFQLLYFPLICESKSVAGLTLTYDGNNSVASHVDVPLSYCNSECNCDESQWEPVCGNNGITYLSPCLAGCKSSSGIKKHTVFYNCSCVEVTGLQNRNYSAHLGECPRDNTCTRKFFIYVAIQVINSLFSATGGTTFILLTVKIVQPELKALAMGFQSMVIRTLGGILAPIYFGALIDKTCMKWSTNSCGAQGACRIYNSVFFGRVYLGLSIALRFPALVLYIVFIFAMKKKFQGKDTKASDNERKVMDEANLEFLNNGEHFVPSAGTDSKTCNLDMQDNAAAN

Compound	residual activity [1]	residual activity [2]
C/C=C/c1ccc(OC)cc1 [ANETHOLE]	89.5%	124.1%
C#CCCCCCCCCCCCC(O)CC(O)CO (stereo not given) [AVOCADYNE]	96.1%	124.3%
COP(=S)(OC)Oc1ccc([N+](=O)[O-])cc1 [METHYL PARATHIONE]	107.9%	100.2%
CCOC(=O)[C@H](CCc1ccccc1)N[C@@H](C)C(=O)N1[C@H](C(=O)O)C[C@H]2CCCC[C@@H]21 [TRANDOLAPRIL]	118%	102.1%
CC(C)(C)C(=O)C(Oc1ccc(Cl)cc1)n1cncn1 (stereo not given) [TRIADIMEFON]	75.79%	87.3%
C[C@@H]1[C@H](O)[C@@H](C)/C=C/C=C/C=C/C=C/C=C/C=C/C=C/[C@H](O[C@@H]2O[C@H](C)[C@@H](O)[C@H](N)[C@@H]2O)C[C@@H]2O[C@](O)(C[C@@H](O)C[C@@H](O)[C@H](O)CC[C@@H](O)C[C@@H](O)CC(=O)O[C@H]1C)C[C@H](O)[C@H]2C(=O)O [AMPHOTERICIN B]	89.01%	99.53%
COC(=O)C(C)c1ccc(C(=O)c2cccs2)cc1 (stereo not given) [SUPROFEN METHYL ESTER]	93.7%	95.34%
O=C(O)CCCCC1CCSS1 (stereo not drawn) [LIPOIC ACID, ALPHA]	129.1%	103.3%
CC[C@@]1(O)C[C@H](O)c2c(cc3c(c2O)C(=O)c2c(O)ccc(O)c2C3=O)[C@H]1C(=O)OC [RUTILANTINONE]	74.91%	99.74%
CS(=O)(=O)c1ccc(C2=C(c3ccccc3)C(=O)OC2)cc1 [ROFECOXIB]	134.4%	84.03%
O=C1c2c(O)cccc2Cc2cccc(O)c21 [ANTHRALIN]	86.38%	90.63%
OC[C@H]1O[C@@](CO)(O[C@H]2O[C@H](CO)[C@@H](O)[C@H](O)[C@H]2O)[C@@H](O[C@H]2O[C@H](CO)[C@@H](O)[C@H](O)[C@H]2O)[C@@H]1O [MELEZITOSE]	99.1%	96.54%
COc1ccc2c(c1)OCC(Cc1ccc(OC)c(OC(C)=O)c1)C2=O (stereo not given) [DEOXYSAPPANONE B 7,3'-DIMETHYL ETHER ACETATE]	122.7%	148.3%
CCCCCCCCCCCC1=C(O)C(=O)C=C(O)C1=O [EMBELIN]	98.02%	94.22%
COc1cccc2c1CCC1CC(=O)CC[C@]21C (stereo not given in full) [14-METHOXY-4,4-BISNOR-8,11,13-PODOCARPATRIEN-3-ONE]	118%	100.9%
Cc1c(C(=O)O)c(O)cc2c1C(=O)c1c(O)c([C@@H]3O[C@H](CO)[C@@H](O)[C@H](O)[C@H]3O)c(O)c(O)c1C2=O [CARMINIC ACID]	21.61%	121.9%
COc1ccc([C@@H]2Sc3ccccc3N(CCN(C)C)C(=O)[C@@H]2OC(C)=O)cc1.Cl [DILTIAZEM HYDROCHLORIDE]	26.71%	80.81%
COC1=CC(=O)C(C(=O)c2ccccc2)=CC1=O [2-BENZOYL-5-METHOXYBENZOQUINONE]	106.8%	165.6%
COc1ccc(-c2oc3c(CC=C(C)C)c(O[C@@H]4O[C@H](CO)[C@@H](O)[C@H](O)[C@H]4O)cc(O)c3c(=O)c2O[C@@H]2O[C@@H](C)[C@H](O)[C@@H](O)[C@H]2O)cc1 [ICARIIN]	212.5%	126.8%
CC(C(=O)O)c1ccc(N2Cc3ccccc3C2=O)cc1 (stereo not given) [INDOPROFEN]	97.2%	96.18%
CCOC(=O)n1ccn(C)c1=S [CARBIMAZOLE]	114.4%	101.8%
NC1(C(=O)O)CC1 [1-Aminocyclopropane carboxylic acid]	125.9%	99.32%
O=C1C(O)=C(O)C(=O)C(O)=C1O [TETROQUINONE]	121.2%	83.15%

Compound	residual activity [1]	residual activity [2]
O=c1c(O)cccc2c([C@H]3Oc4cc(O)cc(O)c4C[C@H]3O)cc(O)c(O)c12 [THEAFLAVANIN]	60%	85.59%
O=C(O)c1cccnc1Nc1cccc(C(F)(F)F)c1 [NIFLUMIC ACID]	79.63%	83.73%
CC(C)C[C@H](NC(=O)[C@H](Cc1ccccc1)NC(=O)CNC(=O)CNC(=O)[C@@H](N)Cc1ccc(O)cc1)C(=O)O [ENKEPHALIN]	84.58%	87.68%
COc1cc2c(cc1OC)-c1c(oc3c4c(ccc3c1=O)OC(C(C)C)C4)CO2 (stereo not given) [DEHYDRODIHYDROROTENONE]	89.82%	95.69%
COC(=O)[C@@]1(C)CCC[C@]2(C)c3ccc(O)c(C(C)C)c3CC[C@@H]12	90.51%	122.1%
O=c1[nH]c(=O)n([C@H]2C[C@H](O)[C@@H](CO)O2)cc1F [FLOXURIDINE]	116.3%	109.2%
COc1cc(/C=C/CO)ccc1O [CONIFERYL ALCOHOL]	49.7%	66.12%
COc1ccc2c(=O)c(OC)c(-c3ccccc3)oc2c1 [3,7-DIMETHOXYFLAVONE]	59.28%	144.6%
CC[C@@H](CO)NC(=O)[C@@H]1C=C2c3cccc4[nH]cc(c34)C[C@H]2N(C)C1.O=C(O)/C=C\C(=O)O [METHYLERGONOVINE MALEATE]	77.53%	108.9%
Nc1nc2c(ncn2[C@H]2C[C@H](O)[C@@H](CO)O2)c(=O)[nH]1 [DEOXYGUANOSINE]	85.51%	90.97%
O=C(CCCN1CCC2(CC1)C(=O)NCN2c1ccccc1)c1ccc(F)cc1 [SPIPERONE]	168.8%	108.9%
C=C(C)[C@H]1Cc2c(ccc3c(=O)c4c(oc23)COc2cc(OC)c(OC)cc2-4)O1 [DEHYDROROTENONE]	113.5%	92.82%
O=C(O[C@@H]1Cc2c(O)cc(O)cc2O[C@@H]1c1cc(O)c(O)c(O)c1)c1cc(O)c(O)c(O)c1 [EPIGALOCATECHIN GALLATE]	49.04%	45.88%
CCc1ccc(CCOc2ccc(CC3SC(=O)NC3=O)cc2)nc1.Cl (stereo not given) [PIOGLITAZONE HYDROCHLORIDE]	122.7%	88.74%
Cc1cc(O)ccc1Cl [CHLOROCRESOL]	119.6%	91.23%
CC(C)CCC[C@@H](C)[C@H]1CC[C@H]2[C@@H]3CC(=O)[C@H]4C[C@@H](O)CC[C@]4(C)[C@H]3CC[C@]12C [5alpha-CHOLESTAN-3beta-OL-6-ONE]	101.9%	105.8%
O=C(O)c1nn(Cc2ccc(Cl)cc2Cl)c2ccccc12 [LONIDAMINE]	129%	108%
CN(N=O)C(=O)N[C@@H](C=O)[C@@H](O)[C@H](O)[C@H](O)CO [STREPTOZOCIN]	93.43%	100.3%
CO[C@H]1/C=C/O[C@@]2(C)Oc3c(C)c(O)c4c(O)c(c(/C=N/N5CCN(C)CC5)c(O)c4c3C2=O)NC(=O)/C(C)=C\C=C\[C@H](C)[C@H](O)[C@@H](C)[C@@H](O)[C@@H](C)[C@H](OC(C)=O)[C@@H]1C [RIFAMPIN]	33.63%	22.01%
Nc1ncnc2c1ncn2[C@@H]1O[C@H](COP(=O)(O)O)[C@@H](O)[C@H]1O [ADENOSINE PHOSPHATE]	91.52%	90.72%
Cl.OC1CCCCC1N1CCC(c2ccccc2)CC1 (stereo not given) [VESAMICOL HYDROCHLORIDE]	64.34%	101.2%
CCCC(C(=O)OCCN(CC)CC)(c1ccccc1)c1ccccc1.Cl [PROADIFEN HYDROCHLORIDE]	36.21%	53.55%
